Measured values taken from publication PMC12090776 (2025).

How the values were obtained:
SINV 6K = SINV 6K (Sindbis virus, UniProt P03316); test: UV-Vis absorption of retained compound after overnight dialysis; type: binding; conditions: 3-4x molar excess compound, 1 h on ice, pH 7.6, 0.015% DDM; EGFP negative control
SARS-CoV-2 E = SARS-CoV-2 E (Severe acute respiratory syndrome coronavirus 2, UniProt P0DTC4); type: binding
Sequence of SARS-CoV-2 E (P0DTC4 whole entry): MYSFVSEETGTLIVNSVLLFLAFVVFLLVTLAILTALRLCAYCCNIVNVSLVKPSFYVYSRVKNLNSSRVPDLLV

Sequence of SINV 6K (P03316 752-806): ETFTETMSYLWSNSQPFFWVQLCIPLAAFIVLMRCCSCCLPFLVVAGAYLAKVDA

Row | SMILES | UV-Vis absorption of retained compound after overnight dialysis (SINV 6K) | UV-Vis absorption of retained compound after overnight dialysis (SARS-CoV-2 E)
1 | N=C(N)NC(=O)c1nc(Cl)c(N2CCCCCC2)nc1N [HMA] | Both 6K (Fig. 2B) and E (Fig. 2C) proteins bind to the compounds | Both 6K (Fig. 2B) and E (Fig. 2C) proteins bind to the compounds
2 | CCN(c1nc(N)c(C(=O)N=C(N)N)nc1Cl)C(C)C [EIPA] | Both 6K (Fig. 2B) and E (Fig. 2C) proteins bind to the compounds | Both 6K (Fig. 2B) and E (Fig. 2C) proteins bind to the compounds
